Legend:
CD20 in Raji cells = experiment: Cell surface abundance of CD20 by staining and flow cytometry in Raji cells; format: cell-based, human; conditions: 0.25-4.0 μM, 48 hours, MFI, FIG. 2A/2B
Experimental: (§1) Cells were treated with increasing concentrations of Compound A (i.e., 0.25 μM, 0.5 μM, 1.0 μM, 2.0 μM, and 4.0 μM) for 48 hours and processed for cell surface abundance of CD20 protein and mRNA in Raji cells. The treated Raji cells were stained for IgG2bK-APC and CD20-APC. The dotted line indicates median of DMSO treatment. The quantification of mean fluorescence intensity (MFI) following cell surface staining and flow cytometry of Raji cells is shown in FIG. 2B. Each sample was background subtracted, where the IgG2bK-APC median MFI in Raji cells was used as the background. […] Together, increased CD20 expression triggered by Compound A can be a potential mechanism for the in vivo combination effect on the Raji cell model. Compound A induced CD20 mRNA expression and cell surface abundance of CD20 on Raji cells. That can be a potential mechanism for the synergistic effect of Compound A with rituximab.

CD20 mRNA in Raji cells = experiment: CD20 mRNA expression relative to RPLP1 in Raji cells; format: cell-based, human; conditions: 0.25-4.0 μM, 48 hours, FIG. 2D
Experimental: as §1

CD20 in Jeko cells = experiment: Cell surface abundance of CD20 by staining and flow cytometry in Jeko cells; format: cell-based; conditions: 0.25-4.0 μM, 48 hours, MFI, FIG. 3A/3B
Experimental: (§2) Cells were treated with increasing concentrations of Compound A (i.e., 0.25 μM, 0.5 μM, 1.0 μM, 2.0 μM, and 4.0 μM) for 48 hours and processed for cell surface abundance of CD20 protein and mRNA in Jeko cells. The treated Jeko cells were stained for IgG2bK-APC and CD20-APC. The dotted line indicates median of DMSO treatment. The quantification of mean fluorescence intensity (MFI) following cell surface staining and flow cytometry of Jeko cells is shown in FIG. 3B. Each sample was background subtracted, where the IgG2bK-APC median MFI in Jeko cells was used as the background. […] Compound A induced CD20 mRNA expression and cell surface abundance of CD20 on Jeko cells. That can be a potential mechanism for the synergistic effect of Compound A with rituximab.

CD20 mRNA in Jeko cells = experiment: CD20 mRNA expression relative to RPLP1 in Jeko cells; format: cell-based; conditions: 0.25-4.0 μM, 48 hours, FIG. 3D
Experimental: as §2

O=C(CCCCCCNC(=O)c1cnc(N(c2ccccc2)c2ccccc2Cl)nc1)NO [Compound A, 2-((2-chlorophenyl)(phenyl)amino)-N-(7-(hydroxyamino)-7-oxoheptyl)pyrimidine-5-carboxamide]
induced: cell surface abundance of CD20 (CD20 in Raji cells) | CD20 mRNA expression (CD20 mRNA in Raji cells) | cell surface abundance of CD20 (CD20 in Jeko cells) | CD20 mRNA expression (CD20 mRNA in Jeko cells)
